Results as given in US5625095A, “Process for producing high purity acetic acid” (Daicel Chemical Industries, Ltd., priority 1994, dated 1997).

Key:
[1] = cited from earlier work
[2] = solubility of metaldehyde in methyl iodide, alcohols and their mixtures; assay type: physicochemical; details: for recrystallization temperature: bottom products composition
Protocol: That is, distillation in the presence of alcohols has made it possible to prevent clogging.
It has been confirmed that in the composition of bottom products from the distillation column in the continuous production process for acetic acid, the recrystallization temperature is 18° C. at a methyl iodide/methanol weight ratio of 3/1, 12° C. at 5/4, 6° C. at 3/4, and -9° C. or lower at 1/2. The preferred methyl iodide/methanol weight ratio, which depends on a thermal insulation state, is 5/4 to 1/2.

## CC=O [acetaldehyde]
[1]
  miscibility with water: well miscible

## CC1OC(C)OC(C)OC(C)O1 (stereo not drawn) [metaldehyde]
[2]; alcohols such as methanol, ethanol, and propanol
  dissolution in alcohols: dissolved
[2]; methyl iodide/methanol weight ratio 1/2
  recrystallization temperature: ≤ -9 °C
[2]; methyl iodide/methanol weight ratio 3/1
  recrystallization temperature: 18 °C
[2]; methyl iodide/methanol weight ratio 3/4
  recrystallization temperature: 6 °C
[2]; methyl iodide/methanol weight ratio 5/4
  recrystallization temperature: 12 °C
[2]; methyl iodide, acetaldehyde, methanol, mixed solution of methyl iodide and methanol
  order of increasing solubilities: methyl iodide<<acetaldehyde=methanol<mixed solution of methyl iodide and methanol
[2]; particularly to methyl iodide
  solubility: low solubility

## CI [methyl iodide]
[1]
  miscibility with water: scarcely miscible
